From patent EP1734039A1, “Aryl urea compounds as BETA-secretase inhibitors” (Esbatech AG, priority 2005, dated 2006)
One block for each compound: values may come before it.

Legend:
[1] = test system: SEAP-APP(Sw)695 fusion protein; experiment: SEAP bioassay (cell-based, luminescence readout); conditions: transiently transfected HEK293 cells; for IC50: Homo sapiens, concentration that reduces secreted SEAP activity to 50 %
From the text: (§1) The tests performed were a) Aβ1-40 (Sw) bioassay, which measures the amount of the amyoid peptide Aβ1-40 in the supernatant of Swedish APP695 transgenic HEK293 cells in the presence of the various BACE inhibitors via ELISA (enzyme-linked immunosorbent assay). […] A SEAP-APP(Sw)695 fusion protein is transiently expressed in HEK293 cells in the presence of the various BACE inhibitors. Secretion of the SEAP moiety upon cleavage at the APP β-site is quantitated via a luminescence readout. […] The compounds were docked with the FFLD approach (Budin et al., Biol. Chem. 382, 1365-1372, 2001) and their binding energy was evaluated with the LIECE method (Huang and Caflisch, J. Med. Chem. 47, 5791-5797, 2004). The affinity evaluated with LIECE is in the low micromolar range for most of these compounds.

Aβ1-40 secretion = experiment: Aβ1-40 (Sw) bioassay (cell-based, ELISA); conditions: for IC50: Homo sapiens, concentration that reduces Aβ1-40 secretion to 50 %, supernatant of Swedish APP695 transgenic HEK293 cells
From the text: as §1

recombinant BACE enzyme = recombinant BACE enzyme (Homo sapiens, UniProt P56817); experiment: FRET assay (in vitro); type: biochemical; conditions: for IC50: concentration that reduces the activity of BACE to 50 %
recombinant BACE enzyme, sequence (P56817 46-501): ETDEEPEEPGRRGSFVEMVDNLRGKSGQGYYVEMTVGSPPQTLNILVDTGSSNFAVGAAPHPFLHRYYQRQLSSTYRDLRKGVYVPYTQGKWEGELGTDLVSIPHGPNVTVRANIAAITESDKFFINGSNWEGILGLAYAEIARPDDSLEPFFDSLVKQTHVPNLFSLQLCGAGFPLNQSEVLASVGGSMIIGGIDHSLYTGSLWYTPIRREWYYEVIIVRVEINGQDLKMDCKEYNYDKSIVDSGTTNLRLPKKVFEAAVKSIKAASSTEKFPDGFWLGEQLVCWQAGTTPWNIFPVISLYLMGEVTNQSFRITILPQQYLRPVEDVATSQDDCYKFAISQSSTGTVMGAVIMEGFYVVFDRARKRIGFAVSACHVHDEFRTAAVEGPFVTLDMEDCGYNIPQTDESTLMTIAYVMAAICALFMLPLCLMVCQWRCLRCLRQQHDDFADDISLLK

IC50 (Aβ1-40 secretion): 13 µM | % reduction of the activity of BACE (recombinant BACE enzyme; at 500 µM): 0 (500 µM) %
Compound: COc1cccc(NC(=O)Nc2nnc(C(C)Oc3ccccc3)s2)c1 (stereo not drawn) [Compound B4]
% reduction of secreted SEAP activity ([1]; at 12.5 µM): 0 (12.5 µM) %

IC50 (Aβ1-40 secretion): 14.3 µM | % reduction of the activity of BACE (recombinant BACE enzyme; at 100 µM): 16 (100 µM) %
Compound: CCCNC(=O)c1cc(NC(=O)Nc2cccc(OC)c2)ccc1N(C)C [Compound A5]
% reduction of secreted SEAP activity ([1]; at 6 µM): 0 (6 µM) %

IC50 (Aβ1-40 secretion): 7.5 µM | % reduction of the activity of BACE (recombinant BACE enzyme; at 100 µM): 33 (100 µM) %
Compound: COCCCNC(=O)c1cc(NC(=O)Nc2cccc(OC)c2)ccc1N(C)C [Compound A4]
% reduction of secreted SEAP activity ([1]; at 6 µM): 21 (6 µM) %

IC50 (Aβ1-40 secretion): 23 µM | % reduction of the activity of BACE (recombinant BACE enzyme; at 100 µM): 21 (100 µM) %
Compound: Cc1ccc(NC(=O)Nc2ccc(N(C)C)c(C(=O)NCCCN3CCOCC3)c2)cc1C [Compound A6]
% reduction of secreted SEAP activity ([1]; at 12.5 µM): 19 (12.5 µM) %

IC50 (Aβ1-40 secretion): 12.9 µM | % reduction of the activity of BACE (recombinant BACE enzyme; at 100 µM): 0 (100 µM) %
Compound: COCCNC(=O)c1cc(NC(=O)Nc2cccc(C)c2)ccc1N(C)C [Compound A7]
% reduction of secreted SEAP activity ([1]; at 12.5 µM): 0 (12.5 µM) %

IC50 (Aβ1-40 secretion): 18 µM | % reduction of the activity of BACE (recombinant BACE enzyme; at 500 µM): 0 (500 µM) %
Compound: Cc1cc(C)cc(NC(=O)NCc2nnc(SCc3ccccc3)n2C)c1 [Compound B1]
% reduction of secreted SEAP activity ([1]; at 50 µM): 0 (50 µM) %

Compound: COc1cc(NC(=O)Nc2ccc(N(C)C)c(C(=O)NCc3ccc(F)cc3)c2)cc(OC)c1 [Compound A10]
% reduction of secreted SEAP activity ([1]; at 1.6 µM): 10 (1.6 µM) % | IC50 (Aβ1-40 secretion): 3.1 µM | IC50 (recombinant BACE enzyme): 64 µM

IC50 (Aβ1-40 secretion): 22 µM | % reduction of the activity of BACE (recombinant BACE enzyme; at 50 µM): 0 (50 µM) %
Compound: Cc1cccc(NC(=O)NCC2CCN(c3ccc(S(=O)(=O)N4CCOCC4)cc3)CC2)c1 [Compound C3]
% reduction of secreted SEAP activity ([1]; at 12.5 µM): 0 (12.5 µM) %

IC50 (Aβ1-40 secretion): 5.6 µM | % reduction of the activity of BACE (recombinant BACE enzyme; at 100 µM): 35 (100 µM) %
Compound: Cc1cccc(NC(=O)Nc2ccc(N(C)C)c(C(=O)NCCc3ccccc3)c2)c1 [Compound A8]
% reduction of secreted SEAP activity ([1]; at 3 µM): 14 (3 µM) %

IC50 (Aβ1-40 secretion): 5.2 µM | % reduction of the activity of BACE (recombinant BACE enzyme; at 200 µM): 20 (200 µM) %
Compound: CCCNC(=O)c1cc(NC(=O)Nc2ccc(CC)cc2)ccc1N(C)C [Compound A11]
% reduction of secreted SEAP activity ([1]; at 6 µM): 0 (6 µM) %

Compound: COCCCNC(=O)c1cc(NC(=O)Nc2ccc(Cl)c(Cl)c2)ccc1N(C)C [Compound A9]
% reduction of secreted SEAP activity ([1]; at 3 µM): 17 (3 µM) % | IC50 (Aβ1-40 secretion): 5.9 µM | IC50 (recombinant BACE enzyme): 46 µM

Compound: CCOCCCNC(=O)c1cc(NC(=O)Nc2cccc(Cl)c2)ccc1N(C)C [Compound A3]
% reduction of secreted SEAP activity ([1]; at 3 µM): 23 (3 µM) % | IC50 (Aβ1-40 secretion): 2.6 µM

Compound: CN(C)c1ccc(NC(=O)Nc2cc(C(F)(F)F)cc(C(F)(F)F)c2)cc1C(=O)NCc1ccc(F)cc1 [Compound A12]
% reduction of secreted SEAP activity ([1]; at 1.6 µM): 14 (1.6 µM) % | IC50 (Aβ1-40 secretion): 4.2 µM | IC50 (recombinant BACE enzyme): 131 µM

IC50 (Aβ1-40 secretion): 40 µM | % reduction of the activity of BACE (recombinant BACE enzyme; at 250 µM): 0 (250 µM) %
Compound: CSc1nnc(CCNC(=O)Nc2ccc(Cl)c(C(F)(F)F)c2)n1C(C)C [Compound B2]
% reduction of secreted SEAP activity ([1]; at 12.5 µM): 0 (12.5 µM) %

IC50 [1]: 10 µM | IC50 (Aβ1-40 secretion): 1.6 µM
Compound: CCSc1nsc(NC(=O)Nc2cccc(C(C)=O)c2)n1 [Compound B3]

IC50 (Aβ1-40 secretion): 7.8 µM | % reduction of the activity of BACE (recombinant BACE enzyme; at 100 µM): 0 (100 µM) %
Compound: CCOCCCNC(=O)c1cc(NC(=O)Nc2ccccc2Br)ccc1N(C)C [Compound A14]
% reduction of secreted SEAP activity ([1]; at 6 µM): 0 (6 µM) %

IC50 (Aβ1-40 secretion): 10 to 20 µM | % reduction of the activity of BACE (recombinant BACE enzyme; at 500 µM): 0 (500 µM) %
Compound: CCNc1nc(NC(C)(C)C)nc(OCCNC(=O)Nc2ccccc2)n1 [Compound C5]
% reduction of secreted SEAP activity ([1]; at 25 µM): 0 (25 µM) %

% reduction of the activity of BACE (recombinant BACE enzyme; at 500 µM): 0 (500 µM) %
Compound: CN(C)c1nc(OCCNC(=O)Nc2ccccc2)nc(N2CCCCC2)n1 [Compound C4]
% reduction of secreted SEAP activity ([1]; at 12.5 µM): 0 (12.5 µM) % | % reduction of Aβ1-40 secretion (Aβ1-40 secretion; at 12.5 µM, Swedish APP695 transgenic HEK293 cells): 31 (12.5 µM) %

IC50 (Aβ1-40 secretion): 3.8 µM | % reduction of the activity of BACE (recombinant BACE enzyme; at 100 µM): 37 (100 µM) %
Compound: COCCCNC(=O)c1cc(NC(=O)Nc2cccc(Br)c2)ccc1N(C)C [Compound A13]
% reduction of secreted SEAP activity ([1]; at 3 µM): 25 (3 µM) %

Compound: CN(C)c1ccc(NC(=O)Nc2cc(C(F)(F)F)cc(C(F)(F)F)c2)cc1C(=O)NCCCN1CCOCC1 [Compound A1]
IC50 [1]: 3.5 µM | IC50 (Aβ1-40 secretion): 3 µM

Compound: COCCCNC(=O)c1cc(NC(=O)Nc2cc(C(F)(F)F)cc(C(F)(F)F)c2)ccc1N(C)C [Compound A2]
% reduction of secreted SEAP activity ([1]; at 3 µM): 27 (3 µM) % | IC50 (Aβ1-40 secretion): 3.2 µM | IC50 (recombinant BACE enzyme): 284 µM
